Patent US6706880B2 (Research Triangle Institute, priority 1990, dated 2004)
Read-outs that look alike come from different tables or passages of the source.

Columns and labels:
[1] = target: norepinephrine transporter (UniProt Q9WTR4); test: Inhibition of [3H]nisoxetine radioligand binding at the norepinephrine transporter
From the text: (§1) Illustrative in vitro assays for binding are described in Boja et al Ann. NY Acad. Sci. 654:282-291 (1992), which is incorporated herein by reference in its entirety. […] Alternatively, the compounds may be analyzed by their ability to inhibit reuptake of a labelled neurotransmitter in a sample, in particular, in synaptosomes.

dopamine transporter = dopamine transporter (UniProt P23977); type: binding
From the text: as §1

serotonin transporter = target: T1, serotonin transporter (Rattus norvegicus, UniProt P31652); test: Inhibition of [3H]paroxetine radioligand binding at the serotonin transporter
T1 construct: from tissue
From the text: as §1

[2] = read-out: IC50 NE [3H]-nisoxetine, Table IV
[3] = read-out: NEN IC50 for inhibition of radioligand binding, NEN=[3H] nisoxetine
[4] = read-out: DA IC50 for inhibition of radioligand binding, DA=[3H]WIN 35,428
[5] = read-out: IC50 DA [3H]-WIN 35,428, Table IV
[6] = 5-HT IC50 for inhibition of radioligand binding, 5-HT=[3H] paroxetine
[7] = IC50 5-HT [3H]-paroxetine, Table IV
[8] = 5-HT=[3H] paroxetine, read-out: 5-HT IC50 for inhibition of radioligand binding
[9] = NEN=[3H] nisoxetine, read-out: NEN IC50 for inhibition of radioligand binding

T1 sequence (P31652 whole entry): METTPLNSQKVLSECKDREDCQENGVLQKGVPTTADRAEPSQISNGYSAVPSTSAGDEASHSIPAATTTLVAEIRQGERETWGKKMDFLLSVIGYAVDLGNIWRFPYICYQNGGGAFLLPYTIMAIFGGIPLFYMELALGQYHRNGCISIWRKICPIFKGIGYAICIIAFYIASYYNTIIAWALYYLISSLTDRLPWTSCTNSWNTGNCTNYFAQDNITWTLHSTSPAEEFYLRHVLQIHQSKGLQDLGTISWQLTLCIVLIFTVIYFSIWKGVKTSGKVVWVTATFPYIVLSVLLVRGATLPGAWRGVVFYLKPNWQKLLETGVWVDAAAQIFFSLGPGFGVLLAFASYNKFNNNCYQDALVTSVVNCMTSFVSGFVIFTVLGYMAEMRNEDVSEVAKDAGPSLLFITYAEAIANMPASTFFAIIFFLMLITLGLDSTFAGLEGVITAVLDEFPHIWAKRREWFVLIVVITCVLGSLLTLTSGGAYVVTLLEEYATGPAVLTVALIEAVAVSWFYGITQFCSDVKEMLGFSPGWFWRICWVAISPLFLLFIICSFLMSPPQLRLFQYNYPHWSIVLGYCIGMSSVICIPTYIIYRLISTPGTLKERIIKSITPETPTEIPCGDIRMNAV

SMILES	IC50 [1, 3]	IC50 (dopamine transporter; [4])	IC50 (serotonin transporter; [6])	IC50 (serotonin transporter; [8])	further results
CC1C(c2ccc(Cl)cc2)CC2CCC1N2C (stereo not drawn) [RTI-4229-139]	56.9 nM	1.67 nM	85 nM	–	IC50 [1, 2]: 57 ± 2.6 nM; IC50 (dopamine transporter; [5]): 1.87 ± 0.13 nM; IC50 (serotonin transporter; [7]): 85 ± 9.3 nM
COc1ccc(-c2noc(C3C(c4ccc(Cl)cc4)CC4CCC3N4C)n2)cc1 (stereo not drawn) [RTI-4229-141]	835 nM	1.81 nM	337 nM	–	–
COC(=O)C1C2CCC(CC1c1ccc(F)cc1)N2 (stereo not drawn) [RTI-4229-142]	18.8 nM	4.39 nM	–	68.6 nM	–
CN1C2CCC1C(c1nc(-c3ccc(Cl)cc3)no1)C(c1ccc(Cl)cc1)C2 (stereo not drawn) [RTI-4229-143]	4070 nM	4.1 nM	404 nM	–	–
CN1C2CCC1C(c1nc(-c3ccc(Br)cc3)no1)C(c1ccc(Cl)cc1)C2 (stereo not drawn) [RTI-4229-144]	1820 nM	3.44 nM	106 nM	–	–
COC(=O)OCC1C(c2ccc(Cl)cc2)CC2CCC1N2C (stereo not drawn) [RTI-4229-145]	1480 nM	9.6 nM	2930 nM	–	IC50 [1, 2]: 1480 ± 96 nM; IC50 (dopamine transporter; [5]): 9.6 ± 0.42 nM; IC50 (serotonin transporter; [7]): 2930 ± 181 nM
CN1C2CCC1C(C(=O)NCO)C(c1ccc(Cl)cc1)C2 (stereo not drawn) [RTI-4229-146]	144 nM	2.05 nM	–	98 nM	–
CN1C2CCC1C(C(=O)N1CCCC1)C(c1ccc(Cl)cc1)C2 (stereo not drawn) [RTI-4229-147]	3950 nM	1.38 nM	12400 nM	–	–
Cc1ccc(C2CC3CCC([C@H]2C(=O)OC2CCC2)N3C)cc1 (stereo partly drawn) [RTI-4229-150]	4740 nM	3.74 nM	2020 nM	–	–
Cc1ccc(C2CC3CCC([C@H]2c2nc(-c4ccccc4)no2)N3C)cc1 (stereo partly drawn) [RTI-4229-151]	60 nM	2.33 nM	1070 nM	–	–
CC(C)OC(=O)C1C2CCC(CC1c1ccc(I)cc1)N2 (stereo not drawn) [RTI-4229-153]	132 nM	1.06 nM	3.59 nM	–	–
CC(C)c1noc(C2C(c3ccc(Cl)cc3)CC3CCC2N3C)n1 (stereo not drawn) [RTI-4229-154]	135 nM	6 nM	3460 nM	–	–
CCc1ccc(C2CC3CCC(N3)C2C(=O)OC)cc1 (stereo not drawn) [RTI-4229-173]	122 nM	49.9 nM	–	8.13 nM	–
CN1C2CCC1C(C(=O)OC1CC1)C(c1ccc(Cl)cc1)C2 (stereo not drawn) [RTI-4229-190]	235 nM	0.96 nM	–	168 nM	–
CN1C2CCC1C(C(=O)OC1CC1)C(c1ccc(I)cc1)C2 (stereo not drawn) [RTI-4229-191]	102 nM	0.61 nM	–	15.5 nM	–
Cc1ccc(C2CC3CCC(C2C(=O)OC2CC2)N3C)cc1 (stereo not drawn) [RTI-4229-193]	544 nM	1.68 nM	–	1070 nM	–
Cc1cccc(OC(=O)C2C(c3ccc(Cl)cc3)CC3CCC2N3C)c1 (stereo not drawn) [RTI-4229-203]	2740 nM	9.37 nM	–	2150 nM	–
Cc1ccccc1OC(=O)C1C(c2ccc(Cl)cc2)CC2CCC1N2C (stereo not drawn) [RTI-4229-204]	4780 nM	3.91 nM	–	3770 nM	–
Cc1ccc(C2CC3CCC(C2C(=O)Oc2cccc(C)c2)N3C)cc1 (stereo not drawn) [RTI-4229-205]	2140 nM	8.19 nM	–	5240 nM	–
Cc1ccc(OC(=O)C2C(c3ccc(Cl)cc3)CC3CCC2N3C)cc1 (stereo not drawn) [RTI-4229-206]	1280 nM	27.4 nM	–	1200 nM	–
CN1C2CCC1C(C(=O)N1CCCCOCC1)C(c1ccc(Cl)cc1)C2 (stereo not drawn) [RTI-4229-214]	8550 nM	2.9 nM	88800 nM	–	–
C=C(C)C1C(c2ccc(Cl)cc2)CC2CCC1N2C (stereo not drawn) [RTI-4229-230]	141 nM	1.26 nM	57.4 nM	–	IC50 [1, 2]: 141 ± 18 nM; IC50 (dopamine transporter; [5]): 1.28 ± 0.17 nM; IC50 (serotonin transporter; [7]): 57 ± 50 nM

SMILES	IC50 [1, 3]	IC50 (dopamine transporter; [4])	IC50 (serotonin transporter; [6])	IC50 (serotonin transporter; [8])	further results
Cc1ccc(C2CC3CCC(C2C(C)C)N3C)cc1 (stereo not drawn) [RTI-4229-239]	35.6 nM	0.61 nM	114 nM	–	IC50 [1, 2]: 35.6 ± 2.57 nM; IC50 (dopamine transporter; [5]): 0.61 ± 0.07 nM; IC50 (serotonin transporter; [7]): 114 ± 3.69 nM
CC(C)C1C(c2ccc(Cl)cc2)CC2CCC1N2C (stereo not drawn) [RTI-4229-240]	84.5 nM	1.38 nM	38.4 nM	–	IC50 [1, 2]: 84.5 ± 3.09 nM; IC50 (dopamine transporter; [5]): 1.38 ± 0.03 nM; IC50 (serotonin transporter; [7]): 38.4 ± 2.31 nM
COC(=O)CC1C(c2ccc(C)cc2)CC2CCC1N2C (stereo not drawn) [RTI-4229-241]	124 nM	1.02 nM	618 nM	–	IC50 [1, 2]: 124 ± 3.56 nM; IC50 (dopamine transporter; [5]): 1.02 ± 0.06 nM; IC50 (serotonin transporter; [7]): 618 ± 28 nM
COC(=O)C1CN2C3CCC2C(C1=O)C(c1ccc(Cl)cc1)C3 (stereo not drawn) [RTI-4229-242]	–	–	227 nM	–	IC50 [1, 9]: 510 nM; IC50 (dopamine transporter; DA=[3H]WIN 35,428, read-out: DA IC50 for inhibition of radioligand binding): 7.57 nM
O=C1CCN2C3CCC2C1C(c1ccc(Cl)cc1)C3 (stereo not drawn) [RTI-4229-243]	–	129 nM	156 nM	–	IC50 [1, 9]: 540 nM
CCOC(=O)CN1C2CCC1C(C(=O)OC)C(c1ccc(Cl)cc1)C2 (stereo not drawn) [RTI-4229-251]	114 nM	1.93 nM	10.1 nM	–	–
COC(=O)CCN1C2CCC1C(C(=O)OC)C(c1ccc(Cl)cc1)C2 (stereo not drawn) [RTI-4229-252]	125 nM	2.56 nM	35.2 nM	–	–
Fc1ccc(C2CC3CCC(N3)C2COc2ccc3c(c2)OCO3)cc1 (stereo not drawn) [RTI-4229-274]	14.4 nM	3.96 nM	5.62 nM	–	–
CN1C2CCC1C(C(=O)Oc1ccccc1)C(c1ccc([N+](=O)[O-])cc1)C2 (stereo not drawn) [RTI-4229-277]	5700 nM	5.94 nM	2910 nM	–	–
COC(=O)C1C2CCC(CC1c1ccc(C)c(I)c1)N2 (stereo not drawn) [RTI-4229-279]	74.3 nM	5.96 nM	1.06 nM	–	IC50 ([1]; read-out: IC50 NE [3H] Nisoxetine, Table III): 74.3 ± 3.8 nM; IC50 (dopamine transporter; read-out: IC50 DA [3H] WIN 35,428, Table III): 5.98 ± 0.48 nM; IC50 (serotonin transporter; IC50 5-HT [3H] Paroxetine, Table III): 1.06 ± 0.39 nM
COC(=O)C1C(c2ccc(C)c(I)c2)CC2CCC1N2C (stereo not drawn) [RTI-4229-280]	484 nM	3.12 nM	6.81 nM	–	–
CC#Cc1ccc(C2CC3CCC(C2C(=O)OC)N3C)cc1 (stereo not drawn) [RTI-4229-281]	820 nM	2.37 nM	–	15.7 nM	–
CCCc1ccc(C2CC3CCC(C2C(=O)OC)N3C)cc1 (stereo not drawn) [RTI-4229-282]	3920 nM	68.5 nM	–	70.4 nM	–
C=C(C)c1ccc(C2CC3CCC(C2C(=O)OC)N3C)cc1 (stereo not drawn) [RTI-4229-283]	3130 nM	14.3 nM	–	3.13 nM	–
CCc1ccc(C2CC3CCC(C2C(=O)OC)N3C)cc1 (stereo not drawn) [RTI-4229-287]	17800 nM	325 nM	1690 nM	–	–
CCc1ccc(C2CC3CCC(C2C(=O)OC)N3C)cc1I (stereo not drawn) [RTI-4229-295]	1350 nM	21.3 nM	2.96 nM	–	–
C/C=C/c1ccc(C2CC3CCC(C2C(=O)OC)N3C)cc1 (stereo not drawn) [RTI-4229-296]	1590 nM	5.29 nM	–	11.4 nM	–
COC(=O)[C@H]1[C@@H](c2ccc(C#Cc3ccccc3)cc2)C[C@@H]2CC[C@H]1N2C [RTI-4229-298]	347 nM	3.7 nM	46.8 nM	–	–
C/C=C\c1ccc(C2C[C@H]3CCC(C2C(=O)OC)N3C)cc1 (stereo partly drawn) [RTI-4229-304]	2800 nM	15 nM	7.09 nM	–	–
COC(=O)C1C2CCC(CC1c1ccc(C)cc1)N2 (stereo not drawn) [RTI-4229-305]	21.8 nM	1.24 nM	1.59 nM	–	–
CCC#Cc1ccc(C2CC3CCC(N3)C2C(=O)OC)cc1 (stereo not drawn) [RTI-4229-307]	116 nM	6.11 nM	3.16 nM	–	–
